Holding throughout (format): cell-based
The target of one assay is T1, K562-αvβ8 (LAP-b1) (Homo sapiens, UniProt P06756+P26012).
T1 construct: expressed in transfected cells; host or cells: K562
Kind of assay: Cell Adhesion Assay αvβ8. The note with it: K562-αvβ8 cells, ligand LAP-b1, 2 mM MgCl2, BCECF-AM fluorescence; read-out: mean affinity (pIC50) αvβ8 (converted).

The next assay addresses T2, K562-αvβ3 (LAP-b1) (Homo sapiens, UniProt P05106+P06756).
T2 construct: expressed in transfected cells; host or cells: K562
Nature of the assay: Cell Adhesion Assay αvβ3. The note with it: K562-αvβ3 cells, ligand LAP-b1, 2 mM MgCl2, BCECF-AM fluorescence; read-out: mean affinity (pIC50) αvβ3 (converted).

Another assay concerns the target T3, K562-αvβ6 (LAP-b1) (Homo sapiens, UniProt P06756+P18564).
T3 construct: expressed in transfected cells; host or cells: K562
Nature of the assay: Cell Adhesion Assay αvβ6. The note with it: K562-αvβ6 cells, ligand LAP-b1, 2 mM MgCl2, BCECF-AM fluorescence; read-out: mean affinity (pIC50) αvβ6 (converted).

A further assay concerns the target T4, K562-αvβ5 (Vitronectin) (Homo sapiens, UniProt P06756+P18084).
T4 construct: expressed in transfected cells; host or cells: K562
Nature of the assay: Cell Adhesion Assay αvβ5. The note with it: K562-αvβ5 cells, ligand Vitronectin, 2 mM MgCl2, BCECF-AM fluorescence; read-out: mean affinity (pIC50) αvβ5 (converted).

The target of another assay is αvβ1 (Homo sapiens, UniProt P05556+P06756). Kind of assay: Cell Adhesion Assay αvβ1. The settings on record: cell line and ligand for αvβ1 not listed in method, read-out: mean affinity (pIC50) αvβ1 (converted).

T2 sequence (P06756 31-889 limits assumed): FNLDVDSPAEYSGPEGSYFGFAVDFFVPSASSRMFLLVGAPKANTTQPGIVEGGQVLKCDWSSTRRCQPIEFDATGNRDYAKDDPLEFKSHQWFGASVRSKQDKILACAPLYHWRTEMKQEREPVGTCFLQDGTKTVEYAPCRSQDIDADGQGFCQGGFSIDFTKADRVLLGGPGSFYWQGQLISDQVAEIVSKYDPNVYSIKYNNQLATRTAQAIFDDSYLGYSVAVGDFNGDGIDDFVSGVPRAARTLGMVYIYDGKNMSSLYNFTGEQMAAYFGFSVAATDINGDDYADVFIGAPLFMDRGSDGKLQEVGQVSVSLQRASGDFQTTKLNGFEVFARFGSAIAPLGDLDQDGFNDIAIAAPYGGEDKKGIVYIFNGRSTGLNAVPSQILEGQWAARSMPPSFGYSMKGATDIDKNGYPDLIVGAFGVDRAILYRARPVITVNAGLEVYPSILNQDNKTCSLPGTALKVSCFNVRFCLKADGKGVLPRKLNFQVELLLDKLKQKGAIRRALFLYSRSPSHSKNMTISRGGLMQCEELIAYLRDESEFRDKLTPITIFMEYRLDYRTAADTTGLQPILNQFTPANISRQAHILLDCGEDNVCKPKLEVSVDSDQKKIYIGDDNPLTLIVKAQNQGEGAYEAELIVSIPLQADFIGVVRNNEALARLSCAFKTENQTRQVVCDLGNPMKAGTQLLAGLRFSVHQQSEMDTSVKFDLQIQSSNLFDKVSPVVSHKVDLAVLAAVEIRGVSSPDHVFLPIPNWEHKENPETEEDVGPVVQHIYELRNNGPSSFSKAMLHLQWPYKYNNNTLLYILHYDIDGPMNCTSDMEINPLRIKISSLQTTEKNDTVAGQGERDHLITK
T2 sequence (P06756 891-1048 limits assumed): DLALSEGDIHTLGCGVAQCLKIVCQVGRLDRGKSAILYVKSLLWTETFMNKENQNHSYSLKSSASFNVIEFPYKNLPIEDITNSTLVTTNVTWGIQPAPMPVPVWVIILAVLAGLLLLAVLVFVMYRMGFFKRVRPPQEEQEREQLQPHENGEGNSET
T2 sequence (P05106 27-788): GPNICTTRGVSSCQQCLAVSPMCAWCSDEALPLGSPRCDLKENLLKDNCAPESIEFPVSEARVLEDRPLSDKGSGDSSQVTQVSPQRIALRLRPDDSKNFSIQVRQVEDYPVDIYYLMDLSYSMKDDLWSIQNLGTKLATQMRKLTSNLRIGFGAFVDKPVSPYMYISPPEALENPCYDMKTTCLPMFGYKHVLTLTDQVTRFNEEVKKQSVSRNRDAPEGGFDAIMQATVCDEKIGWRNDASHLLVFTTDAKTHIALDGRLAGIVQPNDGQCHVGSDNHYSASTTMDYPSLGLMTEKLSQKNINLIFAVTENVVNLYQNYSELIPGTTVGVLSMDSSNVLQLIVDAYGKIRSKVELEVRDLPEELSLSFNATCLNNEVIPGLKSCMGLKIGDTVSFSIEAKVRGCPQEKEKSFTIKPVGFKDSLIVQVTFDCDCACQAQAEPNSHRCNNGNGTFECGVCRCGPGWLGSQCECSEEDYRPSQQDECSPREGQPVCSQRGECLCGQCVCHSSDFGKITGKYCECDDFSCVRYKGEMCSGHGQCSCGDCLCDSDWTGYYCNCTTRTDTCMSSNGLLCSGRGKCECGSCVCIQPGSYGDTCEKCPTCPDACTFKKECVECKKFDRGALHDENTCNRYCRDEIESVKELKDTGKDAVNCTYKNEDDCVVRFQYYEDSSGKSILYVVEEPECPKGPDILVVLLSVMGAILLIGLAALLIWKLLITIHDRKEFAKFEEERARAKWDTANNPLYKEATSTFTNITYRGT
T1 sequence (P06756 31-889 limits assumed): as the sequence (P06756 31-889 limits assumed) above
T1 sequence (P06756 891-1048 limits assumed): as the sequence (P06756 891-1048 limits assumed) above
T1 sequence (P26012 43-769): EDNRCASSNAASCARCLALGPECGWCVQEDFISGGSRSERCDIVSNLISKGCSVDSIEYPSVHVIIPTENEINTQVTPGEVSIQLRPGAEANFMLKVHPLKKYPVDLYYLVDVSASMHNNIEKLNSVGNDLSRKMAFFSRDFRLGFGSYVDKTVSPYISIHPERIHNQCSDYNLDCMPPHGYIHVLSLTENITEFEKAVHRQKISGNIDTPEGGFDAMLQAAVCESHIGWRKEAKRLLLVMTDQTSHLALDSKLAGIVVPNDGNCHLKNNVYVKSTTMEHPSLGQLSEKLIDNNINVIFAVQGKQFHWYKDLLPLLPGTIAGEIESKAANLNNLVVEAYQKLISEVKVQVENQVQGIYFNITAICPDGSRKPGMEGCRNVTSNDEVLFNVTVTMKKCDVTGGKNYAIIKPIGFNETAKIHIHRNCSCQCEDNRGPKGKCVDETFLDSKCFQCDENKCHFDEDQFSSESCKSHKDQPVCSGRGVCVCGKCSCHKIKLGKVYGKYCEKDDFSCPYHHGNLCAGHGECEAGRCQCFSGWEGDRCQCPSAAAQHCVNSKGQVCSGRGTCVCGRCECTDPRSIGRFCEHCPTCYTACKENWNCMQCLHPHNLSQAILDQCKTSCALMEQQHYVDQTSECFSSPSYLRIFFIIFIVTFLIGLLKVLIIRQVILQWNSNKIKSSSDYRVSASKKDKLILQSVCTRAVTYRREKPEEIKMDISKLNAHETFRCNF
T3 sequence (P06756 31-889 limits assumed): as the sequence (P06756 31-889 limits assumed) above
T3 sequence (P06756 891-1048 limits assumed): as the sequence (P06756 891-1048 limits assumed) above
T3 sequence (P18564 22-788): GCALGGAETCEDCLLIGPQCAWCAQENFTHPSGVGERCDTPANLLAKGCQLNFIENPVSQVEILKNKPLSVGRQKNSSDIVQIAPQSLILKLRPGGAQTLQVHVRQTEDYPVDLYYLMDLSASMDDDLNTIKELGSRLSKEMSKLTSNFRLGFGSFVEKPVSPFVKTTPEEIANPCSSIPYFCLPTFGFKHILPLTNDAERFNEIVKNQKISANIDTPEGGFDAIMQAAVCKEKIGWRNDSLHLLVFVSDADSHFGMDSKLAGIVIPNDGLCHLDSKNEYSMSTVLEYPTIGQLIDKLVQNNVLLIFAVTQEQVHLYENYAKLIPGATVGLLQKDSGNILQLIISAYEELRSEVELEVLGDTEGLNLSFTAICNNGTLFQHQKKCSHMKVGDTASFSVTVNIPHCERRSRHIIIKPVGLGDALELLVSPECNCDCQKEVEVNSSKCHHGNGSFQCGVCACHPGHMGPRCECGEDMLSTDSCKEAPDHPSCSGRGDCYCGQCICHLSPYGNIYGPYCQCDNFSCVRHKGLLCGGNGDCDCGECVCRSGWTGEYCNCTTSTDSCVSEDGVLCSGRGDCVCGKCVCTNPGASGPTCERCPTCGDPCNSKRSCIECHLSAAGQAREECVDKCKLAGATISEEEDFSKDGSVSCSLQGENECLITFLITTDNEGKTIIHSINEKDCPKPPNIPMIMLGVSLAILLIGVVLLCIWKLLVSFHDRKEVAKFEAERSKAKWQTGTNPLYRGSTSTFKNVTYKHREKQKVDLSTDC
T4 sequence (P06756 31-889 limits assumed): as the sequence (P06756 31-889 limits assumed) above
T4 sequence (P06756 891-1048 limits assumed): as the sequence (P06756 891-1048 limits assumed) above
T4 sequence (P18084 24-799): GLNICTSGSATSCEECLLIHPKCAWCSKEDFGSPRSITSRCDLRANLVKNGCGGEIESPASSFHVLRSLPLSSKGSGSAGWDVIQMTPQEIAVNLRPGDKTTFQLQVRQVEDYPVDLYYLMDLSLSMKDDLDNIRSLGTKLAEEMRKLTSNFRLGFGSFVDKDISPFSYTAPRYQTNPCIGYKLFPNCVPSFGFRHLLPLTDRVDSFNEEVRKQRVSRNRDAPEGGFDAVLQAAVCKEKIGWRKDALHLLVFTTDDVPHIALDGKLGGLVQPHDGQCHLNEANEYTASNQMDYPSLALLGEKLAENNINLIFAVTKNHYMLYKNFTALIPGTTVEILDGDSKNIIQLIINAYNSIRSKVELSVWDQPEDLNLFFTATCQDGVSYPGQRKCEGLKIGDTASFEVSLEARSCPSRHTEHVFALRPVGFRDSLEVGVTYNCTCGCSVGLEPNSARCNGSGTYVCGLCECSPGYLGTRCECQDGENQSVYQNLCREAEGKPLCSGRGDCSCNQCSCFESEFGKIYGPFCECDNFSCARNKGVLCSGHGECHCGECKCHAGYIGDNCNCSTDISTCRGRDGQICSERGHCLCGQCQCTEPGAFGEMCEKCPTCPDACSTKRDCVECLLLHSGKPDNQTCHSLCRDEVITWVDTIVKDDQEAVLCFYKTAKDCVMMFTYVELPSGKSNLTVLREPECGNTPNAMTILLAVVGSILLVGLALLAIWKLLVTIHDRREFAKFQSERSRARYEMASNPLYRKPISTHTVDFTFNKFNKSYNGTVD
Protocol for K562-αvβ3 (LAP-b1): (§1) The divalent cation used to facilitate adhesion was 2 mM MgCl2. Adhesion was quantified by cell labelling with the fluorescent dye BCECF-AM (Life Technologies), where cell suspensions at 3×10^6 cells/mL were incubated with 0.33 mL/mL of 30 mM BCECF-AM at 37° C. for 10 minutes, before dispensing into the assay plate. At the assay conclusion cells that adhered were lysed using 50 μL/well of 0.5% Triton X-100 in H2O to release fluorescence. Fluorescence intensity was detected using an Envision® plate reader (Perkin Elmer).
Protocol for K562-αvβ5 (Vitronectin): as §1
Protocol for K562-αvβ6 (LAP-b1): as §1
Protocol for K562-αvβ8 (LAP-b1): as §1
Protocol for αvβ1: as §1

In the case of `Cc1cc(-c2cc([C@H](CC(=O)O)CN3CC[C@@H](CCc4ccc5c(n4)NCCC5)C3)cc(N3CCOCC3)c2)[nH]n1` [Example 7, (S)-3-(3-(3-Methyl-1H-pyrazol-5-yl)-5-morpholinophenyl)-4-((R)-3-(2-(5,6,7,8-tetrahydro-1,8-naphthyridin-2-yl)ethyl)pyrrolidin-1-yl)butanoic acid], the IC50 was 25.1 nM at K562-αvβ8 (LAP-b1), 2000 nM at K562-αvβ3 (LAP-b1), 10 nM on K562-αvβ6 (LAP-b1) and 200 nM at K562-αvβ5 (Vitronectin).

Turning to `Cc1ccn(-c2cc(C(CC(=O)O)CN3CC[C@@H](CCc4ccc5c(n4)NCCC5)C3)cc(N3CCOCC3)c2)n1` (mixture of isomers) [Example 4, 3-(3-(3-methyl-1H-pyrazol-1-yl)-5-morpholinophenyl)-4-((R)-3-(2-(5,6,7,8-tetrahydro-1,8-naphthyridin-2-yl)ethyl)pyrrolidin-1-yl)butanoic acid], the IC50 at K562-αvβ8 (LAP-b1) was 31.6 nM; on K562-αvβ3 (LAP-b1), 6310 nM; on K562-αvβ5 (Vitronectin) it was 158 nM.

Take `O=C(O)C[C@H](CN1CC[C@@H](CCc2ccc3c(n2)NCCC3)C1)c1cc(N2CCOCC2)cc(-n2cccn2)c1` [Example 3, (S)-3-(3-morpholino-5-(1H-pyrazol-1-yl)phenyl)-4-((R)-3-(2-(5,6,7,8-tetrahydro-1,8-naphthyridin-2-yl)ethyl)pyrrolidin-1-yl)butanoic acid]: the IC50 on αvβ1 is 50.1 nM; at K562-αvβ8 (LAP-b1) it was 15.8 nM; on K562-αvβ3 (LAP-b1), 3980 nM; at K562-αvβ6 (LAP-b1), 3.16 nM; on K562-αvβ5 (Vitronectin), 200 nM.

In the case of `O=C(O)C[C@H](CN1CC[C@@H](CCc2ccc3c(n2)NCCC3)C1)c1cc(-c2ccn[nH]2)cc(N2CCOCC2)c1` [Example 6, (S)-3-(3-Morpholino-5-(1H-pyrazol-5-yl)phenyl)-4-((R)-3-(2-(5,6,7,8-tetrahydro-1,8-naphthyridin-2-yl)ethyl)pyrrolidin-1-yl)butanoic acid], the IC50 on αvβ1 was 10 nM; on K562-αvβ8 (LAP-b1), 7.94 nM; on K562-αvβ3 (LAP-b1), 1260 nM; on K562-αvβ6 (LAP-b1) it was 3.16 nM; on K562-αvβ5 (Vitronectin), 50.1 nM.

For `O=C(O)C[C@H](CN1CC[C@@H](CCc2ccc3c(n2)NCCC3)C1)c1cc(-c2cn[nH]c2)cc(N2CCOCC2)c1` [Example 8, (S)-3-(3-Morpholino-5-(1H-pyrazol-4-yl)phenyl)-4-((R)-3-(2-(5,6,7,8-tetrahydro-1,8-naphthyridin-2-yl)ethyl)pyrrolidin-1-yl)butanoic acid], the IC50 on K562-αvβ8 (LAP-b1) is 5.01 nM; at K562-αvβ3 (LAP-b1) it was 3980 nM; on K562-αvβ6 (LAP-b1) it was 5.01 nM; at K562-αvβ5 (Vitronectin) it was 63.1 nM.

The values are drawn from patent US10004724B2, “Compounds alpha v beta 6 integrin antagonists” (GlaxoSmithKline Intellectual Property Development Limited, priority 2014, dated 2018).
